Results taken from patent publication US12018059B2, “Human amylin analog polypeptides and methods of use” (Intarcia Therapeutics, Inc., priority 2018, dated 2024).
Starred links: 1 amine or outer side, 2 acyl side, 3 side chain; linkers in the order of their positions; H or OH if unused. Positions of bridges follow the written chain, without caps; N, C: chain ends. Non-standard residues stand in square brackets, D forms with d. Residues, ends and D or L forms follow the SMILES beside them. Groups on a side chain read outwards from the residue. *: point of attachment. X3 = O=C(O)CCCCCCCCCCCCCCCCCCC(=O)N[C@@H](CCC(=O)NCOCCOCC(=O)NCOCCOCC(=O)*)C(=O)O; C16 diacid = O=C(O)CCCCCCCCCCCCCCC(=O)*; γGlu = O=C(O)[C@H](CCC(=O)[*:2])N[*:1]; Palmitoyl = CCCCCCCCCCCCCCCC(=O)*; AEEA = NCCOCCOCC(=O)O

Assay: in vivo
Parameters: species or system Sprague-Dawley rats
Settings: rat, iv, 0.033 mg/kg
Outline: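 Peptide plasma levels measured by UPLC-MS/MS (C18, product-ion monitoring) after protein precipitation or WCX SPE, calibrated in K2EDTA/protease-inhibitor rat plasma. Dosing in non-fasted male Sprague-Dawley rats (n=3): 0.033 mg/kg over 1 h by IV or SC infusion, or 0.3 mg/kg SC bolus; sampling up to 48 h.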

Row | SMILES | Vd | clearance | half-life
1 | CC[C@H](C)[C@H](NC(=O)[C@@H]1CCCN1C(=O)CNC(=O)[C@H](Cc1ccccc1)NC(=O)[C@H](CC(N)=O)NC(=O)[C@H](CC(N)=O)NC(=O)[C@H](CO)NC(=O)[C@H](CO)NC(=O)[C@H](CCCCN)NC(=O)[C@H](Cc1c[nH]cn1)NC(=O)[C@H](CC(C)C)NC(=O)[C@H](CCCCNC(=O)CC[C@H](NC(=O)CC[C@H](NC(=O)CCCCCCCCCCCCCCC(=O)O)C(=O)O)C(=O)O)NC(=O)[C@H](CC(N)=O)NC(=O)[C@H](C)NC(=O)[C@H](CC(C)C)NC(=O)[C@H](CCCNC(=N)N)NC(=O)[C@H](CCC(N)=O)NC(=O)[C@@H](NC(=O)[C@H](C)NC(=O)[C@@H]1CSSC[C@H](NC(=O)[C@@H](N)CO)C(=O)N[C@@H](CC(N)=O)C(=O)N[C@@H]([C@@H](C)O)C(=O)N[C@@H](CO)C(=O)N[C@@H]([C@@H](C)O)C(=O)N1)[C@@H](C)O)C(=O)N[C@@H](CC(C)C)C(=O)N1CCC[C@H]1C(=O)N1CCC[C@H]1C(=O)N[C@H](C(=O)N[C@@H](CCCCN)C(=O)N[C@H](C(=O)NCC(=O)N[C@@H](CO)C(=O)N[C@@H](CCC(=O)O)C(=O)N[C@H](C(=O)N[C@@H](Cc1ccc(O)cc1)C(N)=O)[C@@H](C)O)C(C)C)[C@@H](C)O [Compound A82] (H-SCNTSTCATQRLANK([γGlu-γGlu-C16 diacid])LHKSSNNFGPILPPTKVGSETY-NH2; disulfide 2-7) | 0.152 L/kg | 0.667 mL/min/kg | 3.17 h
2 | CCCCCCCCCCCCCCCC(=O)NCC(=O)N[C@@H](CCC(=O)N[C@@H](CCC(=O)NCCCC[C@@H](NC(=O)[C@H](CCC(=O)O)NC(=O)[C@H](CC(N)=O)NC(=O)[C@H](C)NC(=O)[C@H](CC(C)C)NC(=O)[C@H](CCCNC(=N)N)NC(=O)[C@H](CCC(N)=O)NC(=O)[C@@H](NC(=O)[C@H](C)NC(=O)[C@@H]1CSSC[C@H](NC(=O)[C@@H](N)CO)C(=O)N[C@@H](CC(N)=O)C(=O)N[C@@H]([C@@H](C)O)C(=O)N[C@@H](CO)C(=O)N[C@@H]([C@@H](C)O)C(=O)N1)[C@@H](C)O)C(=O)N[C@@H](Cc1c[nH]cn1)C(=O)N[C@@H](CCCCN)C(=O)N[C@@H](CO)C(=O)N[C@@H](CO)C(=O)N[C@@H](CC(N)=O)C(=O)N[C@@H](CC(N)=O)C(=O)N[C@@H](Cc1ccccc1)C(=O)NCC(=O)N1CCC[C@H]1C(=O)N[C@H](C(=O)N[C@@H](CC(C)C)C(=O)N1CCC[C@H]1C(=O)N1CCC[C@H]1C(=O)N[C@H](C(=O)N[C@@H](CCCCN)C(=O)N[C@H](C(=O)NCC(=O)N[C@@H](CO)C(=O)N[C@@H](CCC(=O)O)C(=O)N[C@H](C(=O)N[C@@H](Cc1ccc(O)cc1)C(N)=O)[C@@H](C)O)C(C)C)[C@@H](C)O)[C@@H](C)CC)C(=O)O)C(=O)O [Compound A39] (H-SCNTSTCATQRLANE[dK]([γGlu-γGlu-Gly-Palmitoyl])HKSSNNFGPILPPTKVGSETY-NH2; disulfide 2-7) | 0.502 L/kg | 1.35 mL/min/kg | 4.85 h
3 | CC[C@H](C)[C@H](NC(=O)[C@@H]1CCCN1C(=O)CNC(=O)[C@H](Cc1ccccc1)NC(=O)[C@H](CC(N)=O)NC(=O)[C@H](CC(N)=O)NC(=O)[C@H](CO)NC(=O)[C@H](CO)NC(=O)[C@H](CCCCN)NC(=O)[C@H](Cc1c[nH]cn1)NC(=O)[C@H](CC(C)C)NC(=O)[C@H](CCCCNC(=O)CC[C@H](NC(=O)CC[C@H](NC(=O)COCCOCNC(=O)COCCOCNC(=O)CC[C@H](NC(=O)CCCCCCCCCCCCCCCCCCC(=O)O)C(=O)O)C(=O)O)C(=O)O)NC(=O)[C@H](CC(N)=O)NC(=O)[C@H](C)NC(=O)[C@H](CC(C)C)NC(=O)[C@H](CCCNC(=N)N)NC(=O)[C@H](CCC(N)=O)NC(=O)[C@@H](NC(=O)[C@H](C)NC(=O)[C@@H]1CSSC[C@H](NC(=O)[C@@H](N)CO)C(=O)N[C@@H](CC(N)=O)C(=O)N[C@@H]([C@@H](C)O)C(=O)N[C@@H](CO)C(=O)N[C@@H]([C@@H](C)O)C(=O)N1)[C@@H](C)O)C(=O)N[C@@H](CC(C)C)C(=O)N1CCC[C@H]1C(=O)N1CCC[C@H]1C(=O)N[C@H](C(=O)N[C@@H](CCCCN)C(=O)N[C@H](C(=O)NCC(=O)N[C@@H](CO)C(=O)N[C@@H](CCC(=O)O)C(=O)N[C@H](C(=O)N[C@@H](Cc1ccc(O)cc1)C(N)=O)[C@@H](C)O)C(C)C)[C@@H](C)O [Compound A94] (H-SCNTSTCATQRLANK([γGlu-γGlu-X3])LHKSSNNFGPILPPTKVGSETY-NH2; disulfide 2-7; N-terminus assumed) | 0.084 L/kg | 0.0365 mL/min/kg | 29.3 h

Results, then the compound that gave them:

Row | Vd | clearance | half-life | SMILES
4 | 0.763 L/kg | 1.95 mL/min/kg | 5.13 h | CCCCCCCCCCCCCCCC(=O)N[C@@H](CCC(=O)NCCOCCOCC(=O)NCCOCCOCC(=O)N[C@@H](CCC(=O)N[C@@H](CCC(=O)NCCCC[C@H](NC(=O)[C@H](CCC(=O)O)NC(=O)[C@H](CC(N)=O)NC(=O)[C@H](C)NC(=O)[C@H](CC(C)C)NC(=O)[C@H](CCCNC(=N)N)NC(=O)[C@H](CCC(N)=O)NC(=O)[C@@H](NC(=O)[C@H](C)NC(=O)[C@@H]1CSSC[C@H](NC(=O)[C@@H](N)CO)C(=O)N[C@@H](CC(N)=O)C(=O)N[C@@H]([C@@H](C)O)C(=O)N[C@@H](CO)C(=O)N[C@@H]([C@@H](C)O)C(=O)N1)[C@@H](C)O)C(=O)N[C@@H](Cc1c[nH]cn1)C(=O)N[C@@H](CCCCN)C(=O)N[C@@H](CO)C(=O)N[C@@H](CO)C(=O)N[C@@H](CC(N)=O)C(=O)N[C@@H](CC(N)=O)C(=O)N[C@@H](Cc1ccccc1)C(=O)NCC(=O)N1CCC[C@H]1C(=O)N[C@H](C(=O)N[C@@H](CC(C)C)C(=O)N1CCC[C@H]1C(=O)N1CCC[C@H]1C(=O)N[C@H](C(=O)N[C@@H](CCCCN)C(=O)N[C@H](C(=O)NCC(=O)N[C@@H](CO)C(=O)N[C@@H](CCC(=O)O)C(=O)N[C@H](C(=O)N[C@@H](Cc1ccc(O)cc1)C(N)=O)[C@@H](C)O)C(C)C)[C@@H](C)O)[C@@H](C)CC)C(=O)O)C(=O)O)C(=O)O [Compound A122] (H-SCNTSTCATQRLANEK([γGlu-γGlu-AEEA-AEEA-γGlu-Palmitoyl])HKSSNNFGPILPPTKVGSETY-NH2; disulfide 2-7; N-terminus assumed)
5 | 0.249 L/kg | 0.788 mL/min/kg | 4.97 h | CCCCCCCCCCCCCCCC(=O)N[C@@H](CCC(=O)NCCOCCOCC(=O)NCCOCCOCC(=O)N[C@@H](CCC(=O)NCCCC[C@@H](NC(=O)[C@H](CCC(=O)O)NC(=O)[C@H](CC(N)=O)NC(=O)[C@H](C)NC(=O)[C@H](CC(C)C)NC(=O)[C@H](CCCNC(=N)N)NC(=O)[C@H](CCC(N)=O)NC(=O)[C@@H](NC(=O)[C@H](C)NC(=O)[C@@H]1CSSC[C@H](NC(=O)[C@@H](N)CO)C(=O)N[C@@H](CC(N)=O)C(=O)N[C@@H]([C@@H](C)O)C(=O)N[C@@H](CO)C(=O)N[C@@H]([C@@H](C)O)C(=O)N1)[C@@H](C)O)C(=O)N[C@@H](Cc1c[nH]cn1)C(=O)N[C@@H](CCCCN)C(=O)N[C@@H](CO)C(=O)N[C@@H](CO)C(=O)N[C@@H](CC(N)=O)C(=O)N[C@@H](CC(N)=O)C(=O)N[C@@H](Cc1ccccc1)C(=O)NCC(=O)N1CCC[C@H]1C(=O)N[C@H](C(=O)N[C@@H](CC(C)C)C(=O)N1CCC[C@H]1C(=O)N1CCC[C@H]1C(=O)N[C@H](C(=O)N[C@@H](CCCCN)C(=O)N[C@H](C(=O)NCC(=O)N[C@@H](CO)C(=O)N[C@@H](CCC(=O)O)C(=O)N[C@H](C(=O)N[C@@H](Cc1ccc(O)cc1)C(N)=O)[C@@H](C)O)C(C)C)[C@@H](C)O)[C@@H](C)CC)C(=O)O)C(=O)O [Compound A25] (H-SCNTSTCATQRLANE[dK]([γGlu-AEEA-AEEA-γGlu-Palmitoyl])HKSSNNFGPILPPTKVGSETY-NH2; disulfide 2-7; N-terminus assumed)
